Test results from PubChem BioAssay (NCI).
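Results reflect a 48-hour exposure of cells in 96-well plates to compound at five concentrations. Here, GI50 denotes the concentration required for 50% inhibition of growth. TGI marks complete inhibition of growth.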

Columns and labels:
Assay in all cases: NCI anticancer screen, dose series, 48 h
786-0 renal = system: 786-0 renal
A498 renal = system: A498 renal
A549 NSCLC = system: A549 NSCLC
ACHN renal = system: ACHN renal
BT-549 breast = system: BT-549 breast
CAKI-1 renal = system: CAKI-1 renal
CCRF-CEM leukemia = system: CCRF-CEM leukemia
COLO 205 colon = system: COLO 205 colon
DU-145 prostate = system: DU-145 prostate
EKVX NSCLC = system: EKVX NSCLC
HCC-2998 colon = system: HCC-2998 colon
HCT-116 colon = system: HCT-116 colon
HCT-15 colon = system: HCT-15 colon
HL-60(TB) leukemia = system: HL-60(TB) leukemia
HOP-62 NSCLC = system: HOP-62 NSCLC
HOP-92 NSCLC = system: HOP-92 NSCLC
HS 578T breast = system: HS 578T breast
HT29 colon = system: HT29 colon
IGROV1 ovarian = system: IGROV1 ovarian
K-562 leukemia = system: K-562 leukemia
KM12 colon = system: KM12 colon
LOX IMVI melanoma = system: LOX IMVI melanoma
M14 melanoma = system: M14 melanoma
MALME-3M melanoma = system: MALME-3M melanoma
MCF7 breast = system: MCF7 breast
MDA-MB-231 breast = system: MDA-MB-231 breast
MDA-MB-435 = system: MDA-MB-435
MOLT-4 leukemia = system: MOLT-4 leukemia
NCI-H226 lung = system: NCI-H226 lung
NCI-H23 lung = system: NCI-H23 lung
NCI-H460 lung = system: NCI-H460 lung
NCI-H522 lung = system: NCI-H522 lung
NCI/ADR-RES ovarian = system: NCI/ADR-RES ovarian
OVCAR-3 ovarian = system: OVCAR-3 ovarian
OVCAR-4 ovarian = system: OVCAR-4 ovarian
OVCAR-5 ovarian = system: OVCAR-5 ovarian
OVCAR-8 ovarian = system: OVCAR-8 ovarian
PC-3 prostate = system: PC-3 prostate
RPMI-8226 leukemia = system: RPMI-8226 leukemia
SF-268 CNS = system: SF-268 CNS
SF-295 CNS = system: SF-295 CNS
SF-539 CNS = system: SF-539 CNS
SK-MEL-2 melanoma = system: SK-MEL-2 melanoma
SK-MEL-28 melanoma = system: SK-MEL-28 melanoma
SK-MEL-5 melanoma = system: SK-MEL-5 melanoma
SK-OV-3 ovarian = system: SK-OV-3 ovarian
SN12C renal = system: SN12C renal
SNB-19 CNS = system: SNB-19 CNS
SNB-75 CNS = system: SNB-75 CNS
SR leukemia = system: SR leukemia
SW-620 colon = system: SW-620 colon
T-47D breast = system: T-47D breast
TK-10 renal = system: TK-10 renal
U251 CNS = system: U251 CNS
UACC-257 melanoma = system: UACC-257 melanoma
UACC-62 melanoma = system: UACC-62 melanoma
UO-31 renal = system: UO-31 renal

In the case of O=C(CCCCCCNC(=O)C(O)(O)C(F)(F)F)Nc1ccc(Br)cc1, the GI50 (786-0 renal) is reported as 4.47 µM, the TGI (786-0 renal) is reported as over 33 µM and the GI50 (A498 renal) is reported as 1.09 µM. For the same molecule, the TGI (A498 renal) was 9.68 µM, the GI50 (A549 NSCLC) was 8.39 µM and the TGI (A549 NSCLC) was over 33 µM. For the same molecule, the GI50 (ACHN renal) was 2.65 µM, the TGI (ACHN renal) was 17.7 µM and the GI50 (BT-549 breast) was 6.42 µM. The TGI (BT-549 breast) was over 33 µM, the GI50 (CAKI-1 renal) was 7.02 µM and the TGI (CAKI-1 renal) was over 33 µM. For the same molecule, the GI50 (CCRF-CEM leukemia) was 1.9 µM, the TGI (CCRF-CEM leukemia) was over 33 µM and the GI50 (COLO 205 colon) was 5.02 µM. The TGI (COLO 205 colon) was 17.7 µM, the GI50 (DU-145 prostate) was 5.46 µM and the TGI (DU-145 prostate) was over 33 µM. The GI50 (EKVX NSCLC) was 5.49 µM, the TGI (EKVX NSCLC) was over 33 µM and the GI50 (HCC-2998 colon) was 5.35 µM. It also gave a TGI (HCC-2998 colon) of 13.2 µM, a GI50 (HCT-116 colon) of 1.12 µM and a TGI (HCT-116 colon) of over 33 µM. The GI50 (HCT-15 colon) was 5.23 µM, the TGI (HCT-15 colon) was 14.1 µM and the GI50 (HL-60(TB) leukemia) was 2.21 µM. The TGI (HL-60(TB) leukemia) was over 33 µM, the GI50 (HOP-62 NSCLC) was 4.29 µM and the TGI (HOP-62 NSCLC) was over 33 µM. For the same molecule, the GI50 (HOP-92 NSCLC) was 0.554 µM, the TGI (HOP-92 NSCLC) was 3.25 µM and the GI50 (HS 578T breast) was 3.84 µM. It also gave a TGI (HS 578T breast) of 30.1 µM, a GI50 (HT29 colon) of 5.11 µM and a TGI (HT29 colon) of over 33 µM. For the same molecule, the GI50 (IGROV1 ovarian) was 4.48 µM, the TGI (IGROV1 ovarian) was 14.1 µM and the GI50 (K-562 leukemia) was 1.2 µM. For the same molecule, the TGI (K-562 leukemia) was over 33 µM, the GI50 (KM12 colon) was 4.82 µM and the TGI (KM12 colon) was 24.3 µM. It also gave a GI50 (LOX IMVI melanoma) of 2.9 µM, a TGI (LOX IMVI melanoma) of 7.5 µM and a GI50 (M14 melanoma) of 7.12 µM. The TGI (M14 melanoma) was over 33 µM, the GI50 (MALME-3M melanoma) was 1.54 µM and the TGI (MALME-3M melanoma) was over 33 µM. For the same molecule, the GI50 (MCF7 breast) was 7.77 µM, the TGI (MCF7 breast) was over 33 µM and the GI50 (MDA-MB-231 breast) was 2.12 µM. It also gave a TGI (MDA-MB-231 breast) of 16.6 µM, a GI50 (MDA-MB-435) of 3.64 µM and a TGI (MDA-MB-435) of over 33 µM. It also gave a GI50 (MOLT-4 leukemia) of 1.42 µM, a TGI (MOLT-4 leukemia) of over 33 µM and a GI50 (NCI-H226 lung) of 8.33 µM. It also gave a TGI (NCI-H226 lung) of over 33 µM, a GI50 (NCI-H23 lung) of 4.6 µM and a TGI (NCI-H23 lung) of 19.6 µM. It also gave a GI50 (NCI-H460 lung) of 2.41 µM, a TGI (NCI-H460 lung) of over 33 µM and a GI50 (NCI-H522 lung) of 4.19 µM. For the same molecule, the TGI (NCI-H522 lung) was 22.8 µM, the GI50 (NCI/ADR-RES ovarian) was 4.12 µM and the TGI (NCI/ADR-RES ovarian) was 18.6 µM. The GI50 (OVCAR-3 ovarian) was 2.22 µM, the TGI (OVCAR-3 ovarian) was 7.5 µM and the GI50 (OVCAR-4 ovarian) was 13.4 µM. For the same molecule, the TGI (OVCAR-4 ovarian) was over 33 µM, the GI50 (OVCAR-5 ovarian) was 1.96 µM and the TGI (OVCAR-5 ovarian) was 12.5 µM. It also gave a GI50 (OVCAR-8 ovarian) of 2.32 µM, a TGI (OVCAR-8 ovarian) of over 33 µM and a GI50 (PC-3 prostate) of 2.86 µM. For the same molecule, the TGI (PC-3 prostate) was over 33 µM, the GI50 (RPMI-8226 leukemia) was 1.9 µM and the TGI (RPMI-8226 leukemia) was over 33 µM. It also gave a GI50 (SF-268 CNS) of 5.78 µM, a TGI (SF-268 CNS) of 21.8 µM and a GI50 (SF-295 CNS) of 2.73 µM. It also gave a TGI (SF-295 CNS) of 8.17 µM, a GI50 (SF-539 CNS) of 5.87 µM and a TGI (SF-539 CNS) of over 33 µM. It also gave a GI50 (SK-MEL-2 melanoma) of 3.29 µM, a TGI (SK-MEL-2 melanoma) of 20.1 µM and a GI50 (SK-MEL-28 melanoma) of 2.38 µM. For the same molecule, the TGI (SK-MEL-28 melanoma) was 18.7 µM, the GI50 (SK-MEL-5 melanoma) was 4.14 µM and the TGI (SK-MEL-5 melanoma) was 8.46 µM. For the same molecule, the GI50 (SK-OV-3 ovarian) was 1.95 µM, the TGI (SK-OV-3 ovarian) was 17.3 µM and the GI50 (SN12C renal) was 5.01 µM. The TGI (SN12C renal) was 24.6 µM, the GI50 (SNB-19 CNS) was 5.58 µM and the TGI (SNB-19 CNS) was 18.1 µM. It also gave a GI50 (SNB-75 CNS) of 3 µM, a TGI (SNB-75 CNS) of over 33 µM and a GI50 (SR leukemia) of 1.74 µM. For the same molecule, the TGI (SR leukemia) was over 33 µM, the GI50 (SW-620 colon) was 1.57 µM and the TGI (SW-620 colon) was 7.16 µM. The GI50 (T-47D breast) was 1.69 µM, the TGI (T-47D breast) was 24.3 µM and the GI50 (TK-10 renal) was 1.09 µM. It also gave a TGI (TK-10 renal) of over 33 µM, a GI50 (U251 CNS) of 3.64 µM and a TGI (U251 CNS) of 17.6 µM. It also gave a GI50 (UACC-257 melanoma) of 6.7 µM, a TGI (UACC-257 melanoma) of over 33 µM and a GI50 (UACC-62 melanoma) of 1.59 µM. For the same molecule, the TGI (UACC-62 melanoma) was 6.2 µM, the GI50 (UO-31 renal) was 1.98 µM and the TGI (UO-31 renal) was 14.8 µM.
